Experiments:
[1] = Microsomal stability, human; assay type: in vitro ADME; conditions: human microsomes
Protocol: (§1) Microsomal stability for Compound AA and Compound BB was investigated. The following table indicates the percent of Compound AA and Compound BB remaining after 60 minutes.

[2] = Microsomal stability, rat; assay type: in vitro ADME; conditions: rat microsomes
Protocol: as §1

NR2A = NR2A (Homo sapiens, UniProt Q12879); assay: Potentiation of [3H]MK-801 binding, wild-type NMDAR2A; parameters: species or system rat
NR2A, sequence (Q12879 23-1464, species assumed, other chains not shown): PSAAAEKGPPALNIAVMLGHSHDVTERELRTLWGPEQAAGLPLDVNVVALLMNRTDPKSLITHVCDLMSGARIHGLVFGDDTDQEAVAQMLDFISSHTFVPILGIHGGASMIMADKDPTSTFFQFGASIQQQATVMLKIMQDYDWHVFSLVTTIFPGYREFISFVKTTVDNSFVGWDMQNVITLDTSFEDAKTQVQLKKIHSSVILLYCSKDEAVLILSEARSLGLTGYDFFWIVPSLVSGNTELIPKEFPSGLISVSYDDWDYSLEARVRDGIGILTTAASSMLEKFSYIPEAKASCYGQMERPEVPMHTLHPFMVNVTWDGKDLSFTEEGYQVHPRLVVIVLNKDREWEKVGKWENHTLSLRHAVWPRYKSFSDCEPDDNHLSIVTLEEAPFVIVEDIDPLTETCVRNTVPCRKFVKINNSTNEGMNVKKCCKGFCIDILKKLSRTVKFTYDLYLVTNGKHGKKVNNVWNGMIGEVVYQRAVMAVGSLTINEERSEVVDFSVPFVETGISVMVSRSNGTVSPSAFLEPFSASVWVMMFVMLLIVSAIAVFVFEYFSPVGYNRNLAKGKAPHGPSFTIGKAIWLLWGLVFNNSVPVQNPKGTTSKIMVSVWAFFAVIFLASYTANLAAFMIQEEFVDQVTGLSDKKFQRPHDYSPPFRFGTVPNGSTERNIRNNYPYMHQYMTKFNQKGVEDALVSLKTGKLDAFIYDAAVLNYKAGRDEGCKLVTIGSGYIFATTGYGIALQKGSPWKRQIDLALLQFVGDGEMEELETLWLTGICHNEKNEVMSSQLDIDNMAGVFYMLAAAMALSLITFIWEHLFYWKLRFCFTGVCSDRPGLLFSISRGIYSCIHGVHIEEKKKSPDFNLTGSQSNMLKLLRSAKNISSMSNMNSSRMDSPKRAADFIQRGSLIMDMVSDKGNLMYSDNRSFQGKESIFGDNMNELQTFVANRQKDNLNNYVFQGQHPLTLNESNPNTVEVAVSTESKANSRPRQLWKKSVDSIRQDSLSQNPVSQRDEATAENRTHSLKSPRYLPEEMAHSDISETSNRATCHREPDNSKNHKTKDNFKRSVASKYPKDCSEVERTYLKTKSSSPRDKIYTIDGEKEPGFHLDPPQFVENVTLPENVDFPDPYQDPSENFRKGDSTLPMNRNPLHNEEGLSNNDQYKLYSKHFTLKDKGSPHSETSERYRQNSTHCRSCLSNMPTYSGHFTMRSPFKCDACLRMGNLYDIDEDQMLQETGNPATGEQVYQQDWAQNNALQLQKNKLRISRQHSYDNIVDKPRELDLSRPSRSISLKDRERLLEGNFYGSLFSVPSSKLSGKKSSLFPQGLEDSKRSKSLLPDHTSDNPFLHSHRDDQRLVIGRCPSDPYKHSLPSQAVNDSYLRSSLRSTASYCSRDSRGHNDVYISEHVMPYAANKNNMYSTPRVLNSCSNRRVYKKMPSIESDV

NR2B = NR2B (Homo sapiens, UniProt Q13224); assay: Potentiation of [3H]MK-801 binding, wild-type NMDAR2B; parameters: species or system rat
NR2B, sequence (Q13224 27-1484, species assumed, other chains not shown): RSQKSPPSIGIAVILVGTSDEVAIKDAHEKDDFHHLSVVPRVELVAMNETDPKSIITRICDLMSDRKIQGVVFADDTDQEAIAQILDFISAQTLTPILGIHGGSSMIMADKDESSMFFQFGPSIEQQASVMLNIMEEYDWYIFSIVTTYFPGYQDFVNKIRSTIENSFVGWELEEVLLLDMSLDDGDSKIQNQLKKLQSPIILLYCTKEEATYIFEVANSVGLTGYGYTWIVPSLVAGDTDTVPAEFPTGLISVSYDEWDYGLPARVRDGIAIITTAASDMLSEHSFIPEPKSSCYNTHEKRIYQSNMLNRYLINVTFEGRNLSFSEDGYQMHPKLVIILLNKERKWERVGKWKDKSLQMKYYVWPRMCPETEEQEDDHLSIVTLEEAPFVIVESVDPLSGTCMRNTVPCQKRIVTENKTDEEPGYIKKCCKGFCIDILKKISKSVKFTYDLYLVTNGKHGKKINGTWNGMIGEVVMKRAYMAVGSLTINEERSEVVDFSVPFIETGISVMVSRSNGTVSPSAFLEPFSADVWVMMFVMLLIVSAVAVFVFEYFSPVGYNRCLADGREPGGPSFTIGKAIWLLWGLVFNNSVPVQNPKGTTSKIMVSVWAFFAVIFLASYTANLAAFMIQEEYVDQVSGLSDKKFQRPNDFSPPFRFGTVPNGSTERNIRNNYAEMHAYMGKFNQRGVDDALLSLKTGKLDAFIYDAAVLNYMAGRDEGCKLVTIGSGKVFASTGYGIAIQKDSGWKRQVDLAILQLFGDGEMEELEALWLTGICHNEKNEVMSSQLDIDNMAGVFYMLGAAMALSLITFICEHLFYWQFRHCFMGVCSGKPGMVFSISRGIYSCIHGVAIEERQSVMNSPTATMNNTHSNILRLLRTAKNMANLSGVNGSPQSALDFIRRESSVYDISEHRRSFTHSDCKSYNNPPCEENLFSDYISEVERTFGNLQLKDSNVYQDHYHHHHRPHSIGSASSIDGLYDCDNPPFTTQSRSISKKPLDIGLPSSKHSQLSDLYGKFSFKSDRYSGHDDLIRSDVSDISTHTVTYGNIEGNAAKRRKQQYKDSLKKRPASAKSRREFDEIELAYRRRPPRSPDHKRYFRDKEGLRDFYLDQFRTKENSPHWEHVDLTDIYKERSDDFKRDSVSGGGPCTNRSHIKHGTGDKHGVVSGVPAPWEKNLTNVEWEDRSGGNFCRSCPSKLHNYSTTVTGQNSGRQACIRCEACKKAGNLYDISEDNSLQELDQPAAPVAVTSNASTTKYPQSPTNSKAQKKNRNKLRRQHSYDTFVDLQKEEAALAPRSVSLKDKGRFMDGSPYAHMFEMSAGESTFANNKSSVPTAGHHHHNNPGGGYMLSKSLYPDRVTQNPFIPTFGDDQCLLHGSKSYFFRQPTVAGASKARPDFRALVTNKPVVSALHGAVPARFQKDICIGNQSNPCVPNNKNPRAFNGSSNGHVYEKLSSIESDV
Protocol: Assays were conducted as described by Moskal et al., “GLYX-13: a monoclonal antibody-derived peptide that acts as an N-methyl-D-aspartate receptor modulator,” Neuropharmacology, 49, 1077-87, 2005. The potentiation of [^3H]MK-801 binding (5 nM; 22.5 Ci/mmol) to well washed rat cortical membranes (200 μg) was measured under non-equilibrium conditions (15 min @ 25° C.) in the presence of increasing concentrations of Compound AA or Compound BB.
FIG. 2A depicts the potentiation of [^3H]MK-801 binding for wild-type NMDAR2 subtypes in the presence of Compound AA. FIG. 2B depicts the potentiation of [^3H]MK-801 binding for wild-type NMDAR2 subtypes in the presence of Compound BB. The following table depicts the results (P means potency and A means activity): […]

Sprague Dawley rats [3] = assay: Blast-induced traumatic brain injury/cognitive deficits measured by PEL; assay type: in vivo, rat; conditions: 10 mg/kg PO 1 h post-blast, PEL 48 hours post-blast
Excerpt: Single blast-induced traumatic brain injury/cognitive deficits were induced, modified for use in rats according to the protocol of Goldstein et al., “Chronic traumatic encephalopathy in blast-exposed military veterans and a blast neurotrauma mouse model,” Science Translational Medicine, Vol. 4, Issue 134, pp. 134ra60, 2012. Male 2-3 month old Sprague Dawley rats were used. Rats were housed in Lucite cages with aspen wood chip bedding, maintained on a 12:12 light:dark cycle (lights on at 5 AM), and given ad libitum access to Purina lab chow (USA) and tap water throughout the study. Rats were first anesthetized using 3.5-4% isoflurane, then the ears were protected with 1.5×1.5 mm foam plugs (Pura-Fit®, Moldex-Metric Inc., Culver City, Calif.), and the rat was placed into a head access rodent thoracic restrainer (Stoelting, USA) to protect the body while allowing the head to move freely. […]
PEL (Positive emotional learning) was conducted 48 hours post-blast. […] High frequency ultrasonic vocalizations (USVs) were recorded and analyzed by sonogram with Avasoft SASlab Pro (Germany) as previously described by Burgdorf et al., “Positive emotional learning is regulated in the medial prefrontal cortex by GluN2B-containing NMDA receptors,” Neuroscience, 192:515-523, 2011. Frequency modulated 50-kHz USVs that occurred during each the no-stimulation periods were quantified to measure PEL. […]

Sprague Dawley rats [4] = assay: Porsolt forced swim test; assay type: in vivo, rat; conditions: 1-100 μg/kg PO, 1 h post-dosing
Protocol: A non-clinical in vivo pharmacology study (Porsolt assay) was performed to measure antidepressant-like effects. A negative control (0.5% sodium carboxymethyl cellulose in 0.9% sterile saline vehicle) and a positive control (Compound C) were used to compare against Compound BB. The study allowed for the construction of a dose-response curve of the effects of each compound on the Porsolt forced swim test as assessed by the rats' response (reduced floating time) during a 5-minute swimming test.
Male 2-3 month old Sprague Dawley rats were used (Harlan, Indianapolis, Ind.). Rats were housed in Lucite cages with aspen wood chip bedding, maintained on a 12:12 light:dark cycle (lights on at 5 AM), and given ad libitum access to Purina lab chow (USA) and tap water throughout the study.
The Porsolt forced swim test adapted for use in rats was performed as described by Burgdorf et al., (The long-lasting antidepressant effects of rapastinel (GLYX-13) are associated with a metaplasticity process in the medial prefrontal cortex and hippocampus. Neuroscience 308:202-211, 2015). Animals were placed in a 46 cm tall×20 cm in diameter clear glass tube filled to 30 cm with tap water (23±1° C.) for 15 min on the first day (habituation) and 5 min on the subsequent test day. Animals were tested 1 h post-dosing with the compound BB, positive control (Compound C, 10 μg/kg), or vehicle (0.5% sodium carboxymethyl cellulose (Na-CMC) in 0.9% sterile saline). Water was changed after every other animal. Animals were videotaped, and floating time as defined as the minimal amount of effort required to keep the animals head above water was scored offline by a blinded experimenter with high inter-rater reliability (Pearson's r >0.9).
The maximally efficacious dose was defined as the lowest dose that was statistically different from vehicle but statistically equivalent (per Fisher's PLSD) to the higher doses. […]
Compound AA was assessed in a second set of animals at a single dose at 1 h post-administration and in a third set of animals at 24 h post-administration (FIG. 9B). […]

[5] = potentiation of [3H]MK-801 binding

Microsomal Stability (% remaining at 60 min) Human [1]: 92%
Microsomal Stability (% remaining at 60 min) Rat [2]: 96%
NR2A A (%) (activity) (NR2A; [5]): 0%
NMDAR2A BINDING PROFILE % 1 mM Glycine (NR2A; relative to 1 mM glycine): 0%
binding to NR2A (in words) (NR2A; statement in description): substantially no binding
NMDAR2A BINDING PROFILE Conclusion (NR2A; wild-type NMDAR2A): WT2A no
NR2B A (%) (activity) (NR2B; [5]): 76.3%
NMDAR2B BINDING PROFILE % 1 mM Glycine (NR2B; relative to 1 mM glycine): 76.3%
binding to NR2B (in words) (NR2B; statement in description): binds
NMDAR2B BINDING PROFILE Conclusion (NR2B; wild-type NMDAR2B): WT2B agonist
Structure (SMILES): C[C@@H](O)[C@@H](C(N)=O)N1C[C@@]2(CCCN2S(C)(=O)=O)C1=O [Compound BB, (2S,3R)-3-hydroxy-2-((S)-5-(methylsulfonyl)-1-oxo-2,5-diazaspiro[3,4]octan-2-yl)butanamide]
blast-induced cognitive deficits as measured by PEL (Sprague Dawley rats [3]): reversed blast-induced cognitive deficits
floating time in the Porsolt test (Sprague Dawley rats [4]): produces an antidepressant-like effect as measured by decreased floating time

Source: patent US10195179B2, “Spiro-lactam NMDA receptor modulators and uses thereof” (Aptinyx Inc., priority 2016, dated 2019)
